This passage reports IC50 results from patent US10399989B2, “Pyrazolopyrimidine derivatives as BTK inhibitors for the treatment of cancer” (Loxo Oncology, Inc., priority 2016, dated 2019).

Test [1] has as its target BTK^WT (Homo sapiens (Human), UniProt Q06187). Kind of test: BTK^WT binding affinity (TR-FRET, LanthaScreen). The method, boiled down:
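Tracer-displacement TR-FRET: 2.5 nM recombinant BTK, 2 nM Eu anti-His antibody and 15 nM Kinase Tracer 236 in Kinase Buffer A with inhibitor for 5 h. Emission read at 615/665 nm (excitation 340 nm); IC50 from variable-slope fit of log concentration vs response.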

The target of test [2] is BTK^C481S (Homo sapiens (Human), UniProt Q06187, C481S). Description: BTK^C481S binding affinity (TR-FRET, LanthaScreen). The settings on record: 5 h incubation. Summed up: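 Tracer-displacement TR-FRET: 5 nM recombinant kinase, 2 nM Eu anti-His antibody and 30 nM Kinase Tracer 236 incubated 5 h with varying inhibitor in Kinase Buffer A. Read at 340 nm excitation, 615/665 nm emission. IC50 from log[inhibitor]–response variable-slope fit.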
A general note: Time-resolved FRET reads energy transfer from a long-lived donor to a nearby acceptor.

Test [3] concerns the target EGFR (Homo sapiens (Human), UniProt P00533). Kind of test: EGFR binding affinity (TR-FRET, LanthaScreen). To be noted: 5 h incubation. The method, boiled down:
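IC50 derived by variable-slope fit of TR-FRET signal (ex 340, em 615 and 665 nm) against inhibitor concentration. Mix contained recombinant GST-detected EGFR at 2.5 nM, Eu anti-GST antibody at 2 nM and Kinase Tracer 199 at 3 nM in Kinase Buffer A, 5 h incubation.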

Test [4] has as its system OCI-Ly10 human DLBCL cells. Kind of test: OCI-Ly10 anti-proliferative activity (Resazurin, 72 h). The class given is cell-based. To be noted: read-out: Proliferation OCI-Ly10-IC50. The method, boiled down:
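Resazurin fluorescence (590 nm, 5 h dye incubation) read after 72 h compound exposure at 37 °C; NFκB-dependent cells seeded at 7.5×10^3/well in 2.5% FBS medium. Day 0 signal subtracted, values normalised to DMSO control; IC50 from log[inhibitor] vs response, variable-slope fit.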
In general terms: Resazurin is reduced to fluorescent resorufin, in cell work by metabolically active cells.

Setting [5] is: TR-FRET binding, 5 h incubation, read-out: BTK^WT IC50.
Where [6] appears, read: Table 6, numeric values, read-out: BTK Binding IC50.

Where two headings read alike, the source gives them in different places.

Chain of BTK^WT (Q06187 whole entry): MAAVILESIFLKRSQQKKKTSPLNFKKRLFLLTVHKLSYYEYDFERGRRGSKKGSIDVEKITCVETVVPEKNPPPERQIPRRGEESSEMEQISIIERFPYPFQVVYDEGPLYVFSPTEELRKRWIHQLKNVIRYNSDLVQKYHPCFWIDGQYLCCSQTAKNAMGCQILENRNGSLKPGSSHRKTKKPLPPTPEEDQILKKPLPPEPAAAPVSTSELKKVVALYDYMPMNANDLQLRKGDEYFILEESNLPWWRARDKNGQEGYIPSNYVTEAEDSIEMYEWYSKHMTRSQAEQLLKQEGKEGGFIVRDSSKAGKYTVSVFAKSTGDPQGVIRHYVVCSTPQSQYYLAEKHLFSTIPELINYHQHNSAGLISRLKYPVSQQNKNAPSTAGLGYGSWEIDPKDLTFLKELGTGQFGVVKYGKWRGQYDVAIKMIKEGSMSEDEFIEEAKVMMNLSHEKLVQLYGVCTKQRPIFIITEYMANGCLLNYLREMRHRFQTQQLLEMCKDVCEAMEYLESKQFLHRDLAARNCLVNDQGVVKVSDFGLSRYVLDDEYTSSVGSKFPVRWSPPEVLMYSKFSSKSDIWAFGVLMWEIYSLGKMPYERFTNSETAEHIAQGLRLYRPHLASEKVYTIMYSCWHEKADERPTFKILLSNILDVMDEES
Chain of BTK^C481S (Q06187 whole entry C481S): as the sequence (Q06187 whole entry) above, with C481S counted along it
Chain of EGFR (P00533 25-1210): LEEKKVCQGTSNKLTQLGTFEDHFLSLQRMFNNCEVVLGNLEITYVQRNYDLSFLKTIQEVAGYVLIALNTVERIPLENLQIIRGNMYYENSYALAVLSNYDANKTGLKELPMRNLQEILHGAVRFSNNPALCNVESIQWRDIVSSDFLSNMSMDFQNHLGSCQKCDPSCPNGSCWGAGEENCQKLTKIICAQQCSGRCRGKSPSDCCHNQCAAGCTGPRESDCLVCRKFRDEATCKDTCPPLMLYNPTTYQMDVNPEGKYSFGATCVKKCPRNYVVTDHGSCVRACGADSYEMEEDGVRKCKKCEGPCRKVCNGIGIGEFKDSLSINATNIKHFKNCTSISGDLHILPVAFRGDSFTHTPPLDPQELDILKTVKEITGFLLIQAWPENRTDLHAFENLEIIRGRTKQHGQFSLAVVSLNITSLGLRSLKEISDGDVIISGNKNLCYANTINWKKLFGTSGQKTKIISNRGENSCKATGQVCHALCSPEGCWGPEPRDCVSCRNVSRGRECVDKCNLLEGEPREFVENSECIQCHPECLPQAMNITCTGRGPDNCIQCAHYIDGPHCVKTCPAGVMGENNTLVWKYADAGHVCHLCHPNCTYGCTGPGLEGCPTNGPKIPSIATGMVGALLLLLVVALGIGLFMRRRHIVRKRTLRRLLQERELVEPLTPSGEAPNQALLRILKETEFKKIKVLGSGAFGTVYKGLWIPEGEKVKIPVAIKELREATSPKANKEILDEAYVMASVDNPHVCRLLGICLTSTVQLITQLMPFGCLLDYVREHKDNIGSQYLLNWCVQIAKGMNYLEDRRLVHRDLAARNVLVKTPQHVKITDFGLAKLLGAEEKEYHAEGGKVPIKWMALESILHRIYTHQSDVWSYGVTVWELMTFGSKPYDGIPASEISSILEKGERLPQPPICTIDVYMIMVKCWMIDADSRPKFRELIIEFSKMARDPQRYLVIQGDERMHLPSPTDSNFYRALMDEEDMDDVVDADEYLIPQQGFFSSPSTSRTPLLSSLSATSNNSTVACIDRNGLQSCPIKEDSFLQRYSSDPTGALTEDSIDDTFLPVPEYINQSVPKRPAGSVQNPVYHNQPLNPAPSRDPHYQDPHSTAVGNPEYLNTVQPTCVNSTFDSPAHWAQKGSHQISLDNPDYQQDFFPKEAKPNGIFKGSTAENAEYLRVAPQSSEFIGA

As for `COc1ccccc1C(=O)NCc1ccc(-c2nn(C3CCC(OC(=O)c4ccc(C)cc4)CC3)c3ncnc(N)c23)cc1` (stereo not shown) [Example 46, [4-[4-amino-3-[4-[[(2-methoxybenzoyl)amino]methyl]phenyl]pyrazolo[3,4-d]pyrimidin-1-yl]cyclohexyl] 4-methylbenzoate], the IC50 lay within 10 to 100 nM in test [1] (setting [5]); 10 to 100 nM in test [2]; 100 to 1000 nM in test [3]; 100 to 1000 nM in test [4] (Homo sapiens, OCI-Ly10, 72 h).
On to `COc1ccc(F)cc1C(=O)NCc1ccc(-c2nn(C3CCCC3)c3ncnc(N)c23)cc1F` [Example 63, N-[[4-(4-Amino-1-cyclopentyl-pyrazolo[3,4-d]pyrimidin-3-yl)-2-fluoro-phenyl]methyl]-5-fluoro-2-methoxy-benzamide], for which the IC50 in test [1] (setting [5]) was no more than 10 nM; in test [2], no more than 10 nM; in test [3], 1000 to 10000 nM; in test [4] (Homo sapiens, OCI-Ly10, 72 h) it was 10 to 100 nM.
With `COc1ccccc1C(=O)NCc1ccc(-c2nn(CC(F)(F)F)c3ncnc(N)c23)cc1` [Example 90, N-[[4-[4-Amino-1-(2,2,2-trifluoroethyl)pyrazolo[3,4-d]pyrimidin-3-yl]phenyl]methyl]-2-methoxy-benzamide], the IC50 was 10 to 100 nM in test [1] (setting [5]); 10 to 100 nM in test [2]; greater than 10000 nM in test [3]; 1000 to 10000 nM in test [4] (Homo sapiens, OCI-Ly10, 72 h).
Turning to `COc1ccccc1C(=O)NCc1ccc(-c2nn(C3CCC(=O)CC3)c3ncnc(N)c23)cc1` [Example 26, N-[[4-[4-amino-1-(4-oxocyclohexyl)pyrazolo[3,4-d]pyrimidin-3-yl]phenyl]methyl]-2-methoxy-benzamide], the IC50 in test [1] (setting [5]) is 10 to 100 nM; in test [2], no more than 10 nM; in test [3], 100 to 1000 nM; in test [4] (Homo sapiens, OCI-Ly10, 72 h), 100 to 1000 nM.
As to `COc1ccccc1C(=O)NCc1ccc(-c2nn(C3CCC(OC)CC3)c3ncnc(N)c23)cc1` (stereo not shown) [Example 39, N-[[4-[4-amino-1-(4-methoxycyclohexyl)pyrazolo[3,4-d]pyrimidin-3-yl]phenyl]methyl]-2-methoxy-benzamide], the IC50 in test [1] (setting [5]) was no more than 10 nM; in test [1] (setting [6]), 1.4 nM; in test [2], no more than 10 nM; in test [3], 100 to 1000 nM; in test [4] (Homo sapiens, OCI-Ly10, 72 h), 10 to 100 nM.
Regarding `Nc1ncnc2c1c(-c1ccc(CNC(=O)c3cccc4cccnc34)cc1)nn2C1CCCC1` [Example 70, N-[[4-(4-amino-1-cyclopentyl-pyrazolo[3,4-d]pyrimidin-3-yl)phenyl]methyl]quinoline-8-carboxamide], the IC50 in test [1] (setting [5]) was no more than 10 nM; in test [2], no more than 10 nM; in test [3], 100 to 1000 nM; in test [4] (Homo sapiens, OCI-Ly10, 72 h), 100 to 1000 nM.
Regarding `CCOC(=O)C1CCCC(n2nc(-c3ccc(CNC(=O)c4ccccc4OC)cc3)c3c(N)ncnc32)C1` (stereo not shown) [Example 41, ethyl 3-[4-amino-3-[4-[[(2-methoxybenzoyl)amino]methyl]phenyl]pyrazolo[3,4-d]pyrimidin-1-yl]cyclohexanecarboxylate], the IC50 is no more than 10 nM in test [1] (setting [5]); 1.2 nM in test [1] (setting [6]); no more than 10 nM in test [2]; 100 to 1000 nM in test [3]; 100 to 1000 nM in test [4] (Homo sapiens, OCI-Ly10, 72 h).
As to `COc1ccccc1C(=O)NCc1ccc(-c2nn(C3CCC(O)CC3)c3ncnc(N)c23)cc1` (single isomer, unassigned) [Example 23-isomer2, N-[[4-[4-amino-1-(4-hydroxycyclohexyl)pyrazolo[3,4-d]pyrimidin-3-yl]phenyl]methyl]-2-methoxy-benzamide], the IC50 in test [1] (setting [5]) is no more than 10 nM; in test [1] (setting [6]), 0.4 nM; in test [2] it was no more than 10 nM; in test [3], 100 to 1000 nM; in test [4] it was 10 to 100 nM.
For `COc1ccccc1C(=O)NCc1ccc(-c2nn(C3CCC(O)CC3)c3ncnc(N)c23)cc1` (single isomer, unassigned) [Example 23-isomer1, N-[[4-[4-amino-1-(4-hydroxycyclohexyl)pyrazolo[3,4-d]pyrimidin-3-yl]phenyl]methyl]-2-methoxy-benzamide], the IC50 is no more than 10 nM in test [1] (setting [5]), no more than 10 nM in test [2], 100 to 1000 nM in test [3] and 100 to 1000 nM in test [4].
For `COc1ccccc1C(=O)NCc1ccc(-n2nc(C3CCCC3)c3ncnc(N)c32)cc1` [Example 38, N-[[4-(7-amino-3-cyclopentyl-pyrazolo[4,3-d]pyrimidin-1-yl)phenyl]methyl]-2-methoxy-benzamide], the IC50 in test [1] (setting [5]) is no more than 10 nM; in test [2], no more than 10 nM; in test [3], 10 to 100 nM; in test [4] (Homo sapiens, OCI-Ly10, 72 h), 10 to 100 nM.
